The text below walks through data of US20240360119A1, “SMALL MOLECULE UREA DERIVATIVES AS STING ANTAGONISTS” (CURADEV PHARMA PVT. LTD., priority 2021, published 2024).

This assay relates to STING (IRF pathway reporter in THP1-Dual™ cells, THP-1 (HAQ)). Kind of assay: Reporter gene expression assay in THP-1 cells (THP1-Dual, IRF pathway Lucia luciferase, 2′,3′-cGAMP stimulation). Format: cell-based, human. As to conditions: Homo sapiens, 10 min preincubation, 5 μM 2′,3′-cGAMP, 20 hr, IRF pathway luciferase (QUANTI-Luc), IC50 range class. The method, then: THP1-Dual™ cells (Invivogen) were derived from the human THP-1 monocyte cell line by stable integration of two inducible reporter constructs. As a result, THP1-Dual™ cells allow the simultaneous study of the IRF pathway, by assessing the activity of a secreted luciferase (Lucia) and the NF-κB pathway, by monitoring the activity of secreted SEAP. 5×10^4 THP1-Dual™ cells were seeded in 384-well plates in growth medium and preincubated with novel compounds for 10 minutes followed by stimulation with 5 μM 2′,3′-cGAMP. After 20 hr of stimulation the supernatant was removed and the IRF pathway reporter protein was readily measured in the cell culture supernatant using QUANTI-Luc™ (Invivogen), a luciferase detection reagent on a Spectramax i3X luminometer.
In the tables below, IC50 value ranges for exemplary compounds are given. The IC50 ranges are indicated as “A” for values less than or equal to 1 μM, “B” for values greater than 1 μM and less than or equal to 10 μM, and “C” for values greater than 10 μM.
`CN(C(=O)CC(NC(=O)Nc1ccc2cc[nH]c2c1)c1ccc2c(c1)N(Cc1ccccc1)CCS2)C1CC1` (stereo not drawn) [Example 32, 3-(3-(1H-indol-6-yl)ureido)-3-(4-benzyl-3,4-dihydro-2H-benzo[b][1,4]thiazin-6-yl)-N-cyclopropyl-N-methylpropanamide]: the concentration for half-maximal inhibition (IC50) is greater than 10 µM.
In the case of `COCCN(C)C(=O)CC(NC(=O)Nc1ccc2cc[nH]c2c1)c1ccc2c(c1)N(Cc1ccccc1)CCS2` (stereo not drawn) [Example 33, 3-(3-(1H-indol-6-yl)ureido)-3-(4-benzyl-3,4-dihydro-2H-benzo[b][1,4]thiazin-6-yl)-N-(2-methoxyethyl)-N-methylpropanamide] it was 1 to 10 µM.
`O=C(CC(NC(=O)Nc1ccc2cc[nH]c2c1)c1ccc2c(c1)N(Cc1ccccc1)CCS2)Nc1cccnc1` (stereo not drawn) [Example 34, 3-(3-(1H-indol-6-yl)ureido)-3-(4-benzyl-3,4-dihydro-2H-benzo[b][1,4]thiazin-6-yl)-N-(pyridin-3-yl)propanamide] showed an IC50 greater than 10 µM.
Consider `O=C(CC(NC(=O)Nc1ccc2cc[nH]c2c1)c1ccc2c(c1)N(Cc1ccccc1)CCS2)NCCO` (stereo not drawn) [Example 35, 3-(3-(1H-indol-6-yl)ureido)-3-(4-benzyl-3,4-dihydro-2H-benzo[b][1,4]thiazin-6-yl)-N-(2-hydroxyethyl)propanamide], for which the IC50 fell in the range of 1 to 10 µM.
In turn, `C=CCC(NC(=O)Nc1ccc2cc[nH]c2c1)c1ccc2c(c1)N(Cc1c(F)cccc1Cl)CCS2` (stereo not drawn) [Example 36, 1-(1-(4-(2-chloro-6-fluorobenzyl)-3,4-dihydro-2H-benzo[b][1,4]thiazin-6-yl)but-3-en-1-yl)-3-(1H-indol-6-yl)urea] returned an IC50 of no more than 1 µM.
`C=CCC(NC(=O)Nc1c[nH]c2ccccc12)c1ccc2c(c1)N(Cc1ccccc1)CCS2` (stereo not drawn) [Example 37, 1-(1-(4-benzyl-3,4-dihydro-2H-benzo[b][1,4]thiazin-6-yl)but-3-en-1-yl)-3-(1H-indol-3-yl)urea] had an IC50 of 1 to 10 µM.
